Experimental data as given in patent US11000033B2, “Ketone or oxime compound, and herbicide” (NISSAN CHEMICAL CORPORATION, priority 2014, dated 2021).

What was measured:
Format in all cases: in vivo
[1] = tested on: rice plant; assay: Test Example 5: effect on crop by foliage application, plastic box (symbol b); conditions: 320 g/ha, 3 weeks after application
Outline: (§1)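 A greenhouse held between 25° C. and 30° C. was used to grow plants sown spot-wise, beneath ~1.5 cm of soil, in boxes of sterilized diluvial soil.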

[2] = tested on: Echinochloa oryzacola Vasing.; assay: Test Example 2: herbicidal activity, application during weed generation in submerged conditions (symbol A); conditions: Table 23; application herbicide amount 320 g/ha; grade 0-5 by criteria of Test Example 1
Outline: (§2)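 Each pot contained alluvial soil under 4 cm of water with seeds of all three weeds sown together. Following growth at 25° C. to 30° C. to the one- to two-leaf stage, the floodwater received diluted emulsion at a predetermined amount; visual assessment followed at 3 weeks.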

[3] = tested on: Monochoria vaginalis; assay: Test Example 2: herbicidal activity, application during weed generation in submerged conditions (symbol C); conditions: Table 23; application herbicide amount 320 g/ha; grade 0-5 by criteria of Test Example 1
Outline: as §2

[4] = tested on: Cyperus difformis; assay: Test Example 3: herbicidal effect by foliage application, Wagner pot (symbol E); conditions: application herbicide amount 320 g/ha
Outline: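 Seeds sown in alluvial soil kept under 0.1–0.5 cm water, greenhouse 25–30 °C; 14 d growth. Leaves treated by small sprayer with water-diluted emulsion at a predetermined rate. Effect graded by set scale, 3 weeks.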

[5] = tested on: Avena fatua; assay: Test Example 5: herbicidal effect by foliage application, plastic box (symbol I); conditions: 320 g/ha, 3 weeks after application
Outline: (§3)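 Effect is rated 3 weeks after a foliar spray of water-diluted emulsion concentrate at a predetermined herbicide amount. Plants had grown 14 days in a 25° C. to 30° C. greenhouse from seed in sterilized diluvial soil.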

[6] = tested on: Digitaria ciliaris; assay: Test Example 5: herbicidal effect by foliage application, plastic box (symbol F); conditions: 320 g/ha, 3 weeks after application
Outline: as §3

[7] = tested on: Echinochloa crus-galli var. crus-galli; assay: Test Example 4: herbicidal effect by soil treatment (symbol H); conditions: application herbicide amount 320 g/ha
Outline: (§4)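 Seeds were sown in sterilized diluvial soil, covered with about 1.5 cm of soil, and the soil surface was sprayed with a water-diluted emulsion of the compound at a predetermined rate. Plants grew in a greenhouse at 25° C. to 30° C.; effects were scored visually 3 weeks after application.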

[8] = tested on: Stellaria media; assay: Test Example 5: herbicidal effect by foliage application, plastic box (symbol P); conditions: 320 g/ha, 3 weeks after application
Outline: as §3

[9] = tested on: Abutilon theophrasti; assay: Test Example 4: herbicidal effect by soil treatment (symbol M); conditions: application herbicide amount 320 g/ha
Outline: as §4

[10] = tested on: directly sowed rice plant; assay: Test Example 3: effect on crop by foliage application, Wagner pot (symbol b); conditions: application herbicide amount 320 g/ha
Outline: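 Plants are raised from seed in flooded paddy conditions: water stands 0.1–0.5 cm over alluvial soil, and the pot is kept in a greenhouse at 25–30 °C. Species sown are barnyardgrass (E. crus-galli var. crus-galli), Leptochloa chinensis, Cyperus difformis and rice.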

[11] = tested on: Apera spica-venti; assay: Test Example 5: herbicidal effect by foliage application, plastic box (symbol L); conditions: 320 g/ha, 3 weeks after application
Outline: as §3

[12] = tested on: rapeseed; assay: Test Example 5: effect on crop by foliage application, plastic box (symbol g); conditions: 320 g/ha, 3 weeks after application
Outline: as §1

[13] = tested on: Echinochloa oryzacola Vasing.; assay: Test Example 1: herbicidal activity, application before weed generation in submerged conditions (symbol A); conditions: application herbicide amount 320 g/ha
Outline: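 Weeds are sown into submerged alluvial soil alongside transplanted 2.5-leaf rice, and the compound, as an emulsion diluted to a set rate, is applied onto the water before emergence. Rating on the 0–5 herbicidal-ratio scale follows 3 weeks of greenhouse growth at 25–30 °C.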

Row | Compound | b: directly sowed rice plant, effect on crop grade [1] | Herbicidal effect grade, A: Echinochloa oryzacola Vasing. [2] | Herbicidal effect grade, C: Monochoria vaginalis [3] | herbicidal effect on E, grade 0-5 [4] | I: Avena fatua, herbicidal effect grade [5] | F: Digitaria ciliaris, herbicidal effect grade [6] | H (Echinochloa crus-galli var. crus-galli) herbicidal effect grade [7] | P: Stellaria media, herbicidal effect grade [8] | M (Abutilon theophrasti) herbicidal effect grade [9] | effect on crop b (directly sowed rice plant), grade 0-5 [10] | L: Apera spica-venti, herbicidal effect grade [11] | g: rapeseed, effect on crop grade [12] | Herbicidal effect grade, A: Echinochloa oryzacola Vasing. [13] | H: Echinochloa crus-galli var. crus-galli, herbicidal effect grade [7] | M: Abutilon theophrasti, herbicidal effect grade [9]
1 | C#CCOC1=C(c2c(C)cc(C)cc2C)C(=O)C(CC(C)=NOC)C1 (stereo not drawn) [1-008] | 4 (Herbicidal ratio of 70% or higher and lower than 90%) | 5 (Herbicidal ratio of 90% or more (almost completely withered)) | 0 (Herbicidal ratio of 5% or lower (almost no effect)) | 4 (Herbicidal ratio of 70% or higher and lower than 90%) | 4 (Herbicidal ratio of 70% or higher and lower than 90%) | 5 (Herbicidal ratio of 90% or more (almost completely withered)) | 4 (Herbicidal ratio of 70% or higher and lower than 90%) | 0 (Herbicidal ratio of 5% or lower (almost no effect)) | 0 (Herbicidal ratio of 5% or lower (almost no effect)) | 5 (Herbicidal ratio of 90% or more (almost completely withered)) | 4 (Herbicidal ratio of 70% or higher and lower than 90%) | 3 (Herbicidal ratio of 40% or higher and lower than 70%) | 5 (Herbicidal ratio of 90% or more (almost completely withered)) | – | –
2 | Cc1cc(C)c(C2=C(O)CC(CC(=O)C(C)C)C2=O)c(C)c1 (stereo not drawn) [2-016] | 5 (Herbicidal ratio of 90% or more (almost completely withered)) | 4 (Herbicidal ratio of 70% or higher and lower than 90%) | 0 (Herbicidal ratio of 5% or lower (almost no effect)) | 4 (Herbicidal ratio of 70% or higher and lower than 90%) | 4 (Herbicidal ratio of 70% or higher and lower than 90%) | 5 (Herbicidal ratio of 90% or more (almost completely withered)) | – | 0 (Herbicidal ratio of 5% or lower (almost no effect)) | – | 5 (Herbicidal ratio of 90% or more (almost completely withered)) | 4 (Herbicidal ratio of 70% or higher and lower than 90%) | 4 (Herbicidal ratio of 70% or higher and lower than 90%) | 4 (Herbicidal ratio of 70% or higher and lower than 90%) | 5 (Herbicidal ratio of 90% or more (almost completely withered)) | 0 (Herbicidal ratio of 5% or lower (almost no effect))
3 | CCCC(=O)C(C(=O)OC)C1CC(O)=C(c2c(C)cc(C)cc2C)C1=O (stereo not drawn) [2-020] | 4 (Herbicidal ratio of 70% or higher and lower than 90%) | 1 (Herbicidal ratio of 5% or higher and lower than 20%) | 0 (Herbicidal ratio of 5% or lower (almost no effect)) | 0 (Herbicidal ratio of 5% or lower (almost no effect)) | 0 (Herbicidal ratio of 5% or lower (almost no effect)) | 3 (Herbicidal ratio of 40% or higher and lower than 70%) | – | 0 (Herbicidal ratio of 5% or lower (almost no effect)) | – | 2 (Herbicidal ratio of 20% or higher and lower than 40%) | 0 (Herbicidal ratio of 5% or lower (almost no effect)) | 0 (Herbicidal ratio of 5% or lower (almost no effect)) | 2 (Herbicidal ratio of 20% or higher and lower than 40%) | 4 (Herbicidal ratio of 70% or higher and lower than 90%) | 0 (Herbicidal ratio of 5% or lower (almost no effect))
